Assay results reported in US5463125A, “Phenyl alcohol amides having anticonvulsant activity” (priority 1993, dated 1995).
Where two headings read alike, the source gives them in different places.

Legend:
[1] = Maximal electroshock test (MES); format: in vivo, mice (male albino, NMR-1 strain); details: Mus musculus, ip, mice, at time of peak drug effect; 95% confidence interval
Protocol: (§1) Male albino mice (NMR-1 strain) weighing 28-32 gm were used in a mouse anticonvulsant and rotarod test. Each of the test compounds (n=0, 1 and 2) were dissolved in a 10% polyethylene glycol-400 saline solution and were administered intraperitoneally (i.p.). Convulsant agents were dissolved in saline solution, buffered with 15 mmol/l Tris-HCl, pH 7.4, except for bicuculline, which was first dissolved in 0.025N HCl, adjusting to pH 4 with a 0.15 mol/l citrate-phosphate buffer. The convulsant dose inducing seizures in 97% of mice (CD97) was determined and used in the pharmacological test. CD97 values obtained were: 85 for pentetrazol (PTZ), 15 for 4-aminopyridine (4-AP), 3.3 for bicuculline (BIC), 20 for thiosemicarbazide (TSC), and 2.0 for strychnine (STR) expressed as mg kg^-1. The time of peak drug effect was evaluated for each anticonvulsant before determining the dose-response curves. Convulsant agents were either injected subcutaneously (s.c. into the back of the neck (BIC, picrotoxin (PIC) and PTZ) or administered i.p. (4-AP, TSC and STR).
(§2) Abolition of the tonic components of the seizure was the end point, except for PTZ, where suppression of seizures of at least 5 seconds duration was considered the end point. […] The ED50, TD50 and 95% confidence intervals were calculated by the method of Litchfield and Wilcoxon. See Litchfield et al., J. Pharmacol. Exp. Ther. 96, 99 (1949).
In a maximal electroshock test, maximal seizures were induced by application of an electrical current across the brain via carclip electrodes. The stimulus parameters for mice were 30-35 mA, A.C. in pulses of 60 Hz for 200 ms. Each compound was tested at the time of peak drug effect. The dose at which the hind limb tonic seizure was blocked in 50% of the animals (ED50 value) was determined by probit analysis.
(§3) (PTZ), 4aminopyridine (4AP), bicuculline (BIC), thiosemicarbazide (TSC),

[2] = Pentetrazol (PTZ) anticonvulsant test; format: in vivo, mice (male albino, NMR-1 strain); details: Mus musculus, ip, 10 min, mice; PTZ s.c.; suppression of seizures of at least 5 s; for compound 1 PTZ given 10 min postdosing (footnote d)
Protocol: as §1, §2
^a) Seizures provoked by: maximal electroshock (MES), pentetrazol
as §3

[3] = 4-aminopyridine (4-AP) anticonvulsant test; format: in vivo, mice (male albino, NMR-1 strain); details: Mus musculus, ip, mice; 4-AP i.p.; abolition of tonic components
Protocol: as §1, §2, §3

[4] = Bicuculline (BIC) anticonvulsant test; format: in vivo, mice (male albino, NMR-1 strain); details: Mus musculus, ip, mice; BIC s.c.; abolition of tonic components
Protocol: as §1, §2, §3

[5] = Thiosemicarbazide (TSC) anticonvulsant test; format: in vivo, mice (male albino, NMR-1 strain); details: Mus musculus, ip, 10 min, mice, abolition of tonic components, for compound 1 TSC given 10 min postdosing
Protocol: as §1, §2, §3

[6] = Strychnine (STR) anticonvulsant test; format: in vivo, mice (male albino, NMR-1 strain); details: for ED50: Mus musculus, ip, read-out: ED50 STR
Protocol: as §1, §2
(§4) strychnine (STR) and picrotoxin (PIC).

[7] = Picrotoxin (PIC) anticonvulsant test; format: in vivo, mice (male albino, NMR-1 strain)
Protocol: as §1, §2, §4

[8] = Accelerating rotarod ataxia test; format: in vivo, mice (male albino, NMR-1 strain)
Protocol: as §1
In a rotarod test, separate groups of mice were trained to stay on an accelerating rotarod that rotated initially at 2.16 rpm, then increased in speed to reach 22.5 rpm in 4 min. The drum diameter was 2.8 cm. Trained animals were dosed with the test compound or drug vehicle and were tested at the time of peak drug effect to measure the effects of the drug on motor performance. The dose at which 50% of the animals fell off the rotarod (TD50 value) was determined by probit analysis.
^b) Accelerating rotarod.

Solubility = format: physicochemical
Protocol: The solid formed was separated by means of filtration and washed with cold benzene. This solid is the DL-HEPA that crystallizes from benzene. […]. […] Fusion point was 91°-92° C. Yield was 20%.
While still warm, the mixture was carefully neutralized with a 5% sulfuric acid solution using litmus paper. Once neutralized, the mixture was extracted with 50 ml volumes of ethyl ether. The ether was distilled in a rotating evaporator, and the white solid residue was the DL-HEPP that crystallizes with water. […] Its fusion point is 101°-102° C.

[9] = constant speed rotarod; data obtained from NIH, ADD program; cited from earlier work
[10] = mice; cited from earlier work
[11] = cats; cited from earlier work
[12] = patients having grand mal seizures; cited from earlier work
[13] = in vivo; cited from earlier work
[14] = data obtained from NIH, ADD program; cited from earlier work
[15] = data obtained from NIH, ADD program; cited from earlier work; remark: listed apart in the source
[16] = Convulsant dose inducing seizures in 97% of mice (CD97); format: in vivo, mice (male albino, NMR-1 strain)
Protocol: as §1

[17] = Preliminary test against convulsions provoked by pentylenetetrazol; format: in vivo; details: 100 mg kg^-1, i.p.
Excerpt: Phenyl alcohol amide derivatives of the foregoing compounds wherein n=0 to 2 may be synthesized by substitution of the ethyl group at the center of chirality by either a methyl or phenyl group. […] Substitution of ethyl by phenyl in the n=0 and n=1 produces a loss in anticonvulsant activity.

[18] = administered i.p. (4-AP, TSC, STR)

In the case of `CCC(O)(C(N)=O)c1ccccc1` (racemic) [Compound 1, (±)-2-hydroxy-2-phenylbutyramide], the ED50 [1] is reported as 126 mg/kg, the ED50 [2] is reported as 67 mg/kg and the ED50 [3] is reported as 24 mg/kg. The ED50 [4] was 29 mg/kg, the ED50 [5] was 47 mg/kg and the ED50 [6] was 56 mg/kg. For the same molecule, the “strychnine activity relative to the n=2 compound” value ([6]; comparison in words) was “more than twice that of the n=2 compound”, the PIC effect ([7]; at 80 mgkg^-1) was “No effects” and the TD50 rotarod ataxia ([8]; accelerating rotarod, i.p., mice, compound 2 tested 30 min postdosing) was 132 mg/kg. For the same molecule, the “solubility (insoluble in)” value (Solubility) was “insoluble in cold benzene or water” and the “solubility (soluble in)” value (Solubility) was “soluble in ethyl alcohol, chloroform and hot benzene”.

With `CCC(O)(CC(N)=O)c1ccccc1` (racemic) [Compound 2, (±)-3-hydroxy-3-phenylpentamide] the ED50 [1] was 144 mg/kg, the ED50 [2] was 63 mg/kg and the ED50 [3] was 19 mg/kg. For the same molecule, the ED50 [4] was 38 mg/kg, the ED50 [5] was 43 mg/kg and the “Maximum protection, STR” value ([6]; at 100 mgkg^-1, STR administered 15 min postdosing) was 30%. For the same molecule, the “Maximum protection, PIC” value ([7]; at 130 mgkg^-1, PIC administered 15 min postdosing) was 37%, the picrotoxin test activity ([7]; dose of 130 mg kg^-1) was “active” and the “neurotoxicity in rotarod ataxia test” value ([8]; in words) was “unusually low neurotoxicity”. The TD50 ([8]; mouse, in vivo, ip, accelerating rotarod, i.p., mice, compound 2 tested 30 min postdosing, read-out: TD50 rotarod ataxia) was 214 mg/kg, the “solubility (insoluble in)” value (Solubility) was “insoluble in cold water” and the “solubility (soluble in)” value (Solubility) was “soluble in ethyl alcohol, benzene and hot water”.

`CCC(O)(CCC(N)=O)c1ccccc1` (racemic) [Compound 3, (±)-4-hydroxy-4-phenylhexanamide] showed an ED50 [1] of 148 mg/kg, an ED50 [2] of 63 mg/kg and an ED50 [3] of 29 mg/kg. It also gave an ED50 [4] of 30 mg/kg, an ED50 [5] of 73 mg/kg and an ED50 [6] of 106 mg/kg. For the same molecule, the PIC effect ([7]; at 120 mgkg^-1) was “No effects”, the TD50 ([8]; rotarod ataxia test) was 111 and the TD50 rotarod ataxia [9] was 168 mg/kg. The “protection against seizures provoked by bicuculline” value [10] was “protects mice against seizures”, the “protection against seizures provoked by maximal electroshock” value [10] was “protects mice against seizures” and the “protection against seizures provoked by pentetrazol” value [10] was “protects mice against seizures”. The “protection against hippocampal kindling” value [11] was “protects”, the clinical antiepileptic action [12] was “potent clinical antiepileptic action” and the “profile of anticonvulsant activity” value [13] was “broad profile of anticonvulsant activity”. For the same molecule, the “ED50 MES” value [14] was 147 mg/kg and the “ED50 PTZ” value [15] was 58 mg/kg.

With `Nc1ccncc1` [4-aminopyridine] the CD97 [16, 18] was 15 mg/kg.

In the case of `CN1CCc2cc3c(cc2[C@H]1[C@@H]1OC(=O)c2c1ccc1c2OCO1)OCO3` [bicuculline], the CD97 ([16]; administered s.c. (PTZ, BIC)) is reported as 3.3 mg/kg.

With `CC(O)(CC(N)=O)c1ccccc1` (stereo not drawn) [methyl group in the n=1 compound] the “anticonvulsant activity against pentylenetetrazol convulsions” value [17] was “suppresses anticonvulsant activity”.

For `CC(O)(C(N)=O)c1ccccc1` (stereo not drawn) [n=0 derivative], the “anticonvulsant activity against pentylenetetrazol convulsions” value [17] was “retains activity”.

For `CC(O)(CCC(N)=O)c1ccccc1` (stereo not drawn) [n=2 derivative], the “anticonvulsant activity against pentylenetetrazol convulsions” value [17] was “conserves half-potency”.

For `C1CCc2nnnn2CC1` [pentetrazol], the CD97 ([16]; administered s.c. (PTZ, BIC)) was 85 mg/kg.

Work on `O=C1C[C@@H]2OCC=C3CN4CC[C@]56c7ccccc7N1[C@H]5[C@H]2[C@H]3C[C@H]46` [strychnine] yielded a CD97 [16, 18] of 2.0 mg/kg.

`NNC(N)=S` [thiosemicarbazide] showed a CD97 [16, 18] of 20 mg/kg.
